Laboratory results as given in patent publication US7935670B2, “Hepatitis C virus inhibitors” (Bristol-Myers Squibb Company, priority 2006, dated 2011).

Experiments:
[1] = molecular target: T1, HCV NS3/4A protease complex, H77 strain (Hepatitis C virus genotype 1a, UniProt P27958, C1454S/C1711G); assay: FRET peptide assay to monitor HCV NS3/4A proteolytic activity (H77 strain); assay type: biochemical, HCV genotype 1a
T1 construct: DNA encoding the recombinant HCV NS3/4A protease complex (amino acids 1027 to 1711) for these strains; His tag (inferred from pET21b vector and Ni-NTA purification); made in house; host or cells: Escherichia coli BL21 (DE3), pET21b
T1 sequence (P27958 1027-1711 C1454S/C1711G, one chain of several): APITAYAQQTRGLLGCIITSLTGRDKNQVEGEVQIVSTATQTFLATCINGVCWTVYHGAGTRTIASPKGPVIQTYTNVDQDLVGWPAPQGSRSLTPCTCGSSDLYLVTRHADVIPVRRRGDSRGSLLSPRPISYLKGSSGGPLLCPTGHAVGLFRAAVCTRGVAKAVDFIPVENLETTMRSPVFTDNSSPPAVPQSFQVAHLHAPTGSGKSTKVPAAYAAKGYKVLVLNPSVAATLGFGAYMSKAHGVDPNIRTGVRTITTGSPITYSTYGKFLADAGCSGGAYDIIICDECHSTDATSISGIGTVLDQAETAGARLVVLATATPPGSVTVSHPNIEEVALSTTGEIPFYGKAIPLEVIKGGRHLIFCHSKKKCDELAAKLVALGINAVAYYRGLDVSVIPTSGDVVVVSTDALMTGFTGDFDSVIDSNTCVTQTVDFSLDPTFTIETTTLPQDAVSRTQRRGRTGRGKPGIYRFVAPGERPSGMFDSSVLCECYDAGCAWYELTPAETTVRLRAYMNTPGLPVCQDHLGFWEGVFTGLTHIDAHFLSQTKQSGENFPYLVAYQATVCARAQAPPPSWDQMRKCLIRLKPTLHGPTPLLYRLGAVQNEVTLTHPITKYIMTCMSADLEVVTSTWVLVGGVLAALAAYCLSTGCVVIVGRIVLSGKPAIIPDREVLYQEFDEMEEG
Text: HCV NS3 protease complexes, derived from the BMS strain, H77 strain or J4L6S strain, were generated, as described below. These purified recombinant proteins were generated for use in a homogeneous assay (see below) to provide an indication of how effective compounds of the present disclosure would be in inhibiting HCV NS3 proteolytic activity.
Serum from an HCV-infected patient was obtained from Dr. T. Wright, San Francisco Hospital. An engineered full-length cDNA (compliment deoxyribonucleic acid) template of the HCV genome (BMS strain) was constructed from DNA fragments obtained by reverse transcription-PCR(RT-PCR) of serum RNA (ribonucleic acid) and using primers selected on the basis of homology between other genotype 1a strains. From the determination of the entire genome sequence, a genotype 1a was assigned to the HCV isolate according to the classification of Simmonds et al. (See P Simmonds, K A Rose, S Graham, S W Chan, F McOmish, B C Dow, E A Follett, P L Yap and H Marsden, J. Clin. Microbiol., 31(6), 1493-1503 (1993)). […]

[2] = molecular target: T2, human neutrophil elastase (HNE) (Homo sapiens, UniProt P08246); assay: Specificity assay, human neutrophil elastase; assay type: biochemical; settings: 2 h enzyme-inhibitor pre-incubation; read-out: HLE activity (IC50) in the specificity assay
T2 construct: purchased Sigma
T2 sequence (P08246 30-267): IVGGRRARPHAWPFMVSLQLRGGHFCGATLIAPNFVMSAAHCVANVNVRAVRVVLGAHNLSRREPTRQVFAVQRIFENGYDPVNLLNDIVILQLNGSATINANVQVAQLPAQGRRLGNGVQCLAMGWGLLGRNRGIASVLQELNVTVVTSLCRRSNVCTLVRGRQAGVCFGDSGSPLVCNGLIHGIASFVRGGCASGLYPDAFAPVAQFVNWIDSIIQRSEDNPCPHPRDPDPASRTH
Procedure: (§1) The specificities of compounds of the present disclosure were determined against a variety of serine proteases: human neutrophil elastase (HNE), porcine pancreatic elastase (PPE) and human pancreatic chymotrypsin and one cysteine protease: human liver cathepsin B. In all cases a 96-well plate format protocol using colorimetric p-nitroaniline (pNA) substrate specific for each enzyme was used as described previously (PCT Patent Application No. WO 00/09543) with some modifications to the serine protease assays. All enzymes were purchased from Sigma while the substrates were from Bachem.
(§2) Each assay included a 2 h enzyme-inhibitor pre-incubation at room temperature followed by addition of substrate and hydrolysis to ˜30% conversion as measured on a Spectramax Pro microplate reader. Compound concentrations varied from 100 to 0.4 μM depending on their potency.
(§3) 50 mM Tris(hydroxymethyl)aminomethane hydrochloride (Tris-HCl) pH 8, 0.5 M Sodium Sulfate (Na2SO4), 50 mM NaCl, 0.1 mM EDTA, 3% DMSO, 0.01% Tween-20 with:
(§4) 133 μM succ-AAA-pNA and 20 nM HNE or 8 nM PPE; 100 μM succ-AAPF-pNA and […] Chymotrypsin.
(§5) The percentage of inhibition was calculated using the formula: [1−((UVinh−UVblank)/(UVctl−UVblank))]×100
(§6) A non-linear curve fit was applied to the inhibition-concentration data, and the 50% effective concentration (IC50) was calculated by the use of Excel Xl-fit software.

[3] = molecular target: T3, porcine pancreatic elastase (PPE) (Sus scrofa, UniProt P00772); assay: Specificity assay, porcine pancreatic elastase; assay type: biochemical; settings: 2 h enzyme-inhibitor pre-incubation
T3 construct: purchased Sigma
T3 sequence (P00772 27-266): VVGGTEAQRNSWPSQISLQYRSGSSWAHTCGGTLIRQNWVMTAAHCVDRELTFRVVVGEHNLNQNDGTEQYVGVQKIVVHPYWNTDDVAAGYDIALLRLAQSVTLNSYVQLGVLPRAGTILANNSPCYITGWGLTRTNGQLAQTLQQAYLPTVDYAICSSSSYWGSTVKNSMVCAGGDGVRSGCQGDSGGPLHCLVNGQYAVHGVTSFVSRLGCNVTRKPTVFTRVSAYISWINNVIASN
Procedure: as §1, §2, §3, §4, §5, §6

**Q.** With `C=C[C@@H]1C[C@]1(NC(=O)[C@@H]1C[C@@H](OC(=O)c2ccccc2)CN1C(=O)[C@@H](NC(=O)OC(C)(C)C)C(C)(C)C)C(=O)NS(=O)(=O)C1CC1` [Compound 1] as the compound, how does the IC50 [1] read?
**A.** 0.006 µM

**Q.** What about the IC50 [2] of the same compound?
**A.** > 200 µM

**Q.** And the IC50 [3]?
**A.** > 200 µM
